Experimental data published in patent US9855265B2, “Methods for treating cancer with TrkA receptor tyrosine kinase antagonists” (VM Oncology LLC, priority 2014, dated 2018).

Tests used:
AKT1 = AKT1 (Homo sapiens, UniProt P31749); test: radiometric kinase assay, other kinases: AKT1; assay type: biochemical; conditions: duplicate
Protocol: (§1) Compound inhibition in a radiometric based mixed micelle assay: In a final reaction volume of 25 μL, TrkA (h) ([…]) is incubated with the kinase reaction buffer (20 mM HEPES (pH 7.5), 10 mM MgCl2, 1 mM EGTA, 0.02% Brij 35, 0.02 mg/ml BSA, 0.1 mM Na3VO4, 2 mM DTT, 1% DMSO), 0.2 mg/ml substrate PolyEY(4:1) and […], and [^33P-ATP](specific activity approx. 500 cpm/pmol, concentration as required). The reaction is initiated by the addition of the MgATP mix. After incubation for at least 40 minutes at room temperature, the reaction is stopped by the addition of 5 μL of a 3% phosphoric acid solution. 10 μL of the reaction is then spotted onto a P30 filtermat and washed three times for 5 minutes in 75 mM phosphoric acid and once in methanol prior to drying and scintillation counting. TrkA: Recombinant Human Cytoplasmic Domain (amino acids 441-796), Histidine-tagged, expressed in insect cells. Activated in vitro via auto-phosphorylation. Mw=42.8 kDa. Substrates for kinases: poly(EY) for TRKA; poly(EY)(4:1) with 2 mM MnCl2, average Mw=16 kDa Standard conditions (unless otherwise specified): 30 nM TRKA, 0.2 mg/ml poly(EY)+2 mM MnCl2, and 10 μM ([γ-^33P]) ATP. Using the similar assay condition with other kinases of recombinant human cytoplasmic domain, the activities of other kinases could be also measured.

AXL = biological target: T1, AXL (Homo sapiens, UniProt P30530); test: radiometric kinase assay, other kinases: AXL; assay type: biochemical; conditions: duplicate
T1 construct: other kinases of recombinant human cytoplasmic domain
T1 sequence (P30530 473-894 limits assumed): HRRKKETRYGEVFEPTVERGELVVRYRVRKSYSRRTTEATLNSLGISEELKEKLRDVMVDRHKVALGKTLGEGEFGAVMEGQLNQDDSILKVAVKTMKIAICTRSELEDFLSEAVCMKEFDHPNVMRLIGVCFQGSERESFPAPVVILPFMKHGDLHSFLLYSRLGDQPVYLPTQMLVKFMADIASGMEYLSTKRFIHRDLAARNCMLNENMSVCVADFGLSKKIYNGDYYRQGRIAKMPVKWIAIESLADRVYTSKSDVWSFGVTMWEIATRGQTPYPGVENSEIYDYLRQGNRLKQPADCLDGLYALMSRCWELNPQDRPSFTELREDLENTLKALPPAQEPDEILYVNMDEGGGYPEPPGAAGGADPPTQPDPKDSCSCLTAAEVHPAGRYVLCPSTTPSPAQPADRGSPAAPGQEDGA
Protocol: as §1

BTK = BTK (Homo sapiens, UniProt Q06187); test: radiometric kinase assay, other kinases: BTK; assay type: biochemical; conditions: duplicate
Protocol: as §1

FMS = biological target: T2, FMS (Homo sapiens, UniProt P07333); test: radiometric kinase assay, other kinases: FMS; assay type: biochemical; conditions: duplicate
T2 construct: other kinases of recombinant human cytoplasmic domain
T2 sequence (P07333 539-972 limits assumed): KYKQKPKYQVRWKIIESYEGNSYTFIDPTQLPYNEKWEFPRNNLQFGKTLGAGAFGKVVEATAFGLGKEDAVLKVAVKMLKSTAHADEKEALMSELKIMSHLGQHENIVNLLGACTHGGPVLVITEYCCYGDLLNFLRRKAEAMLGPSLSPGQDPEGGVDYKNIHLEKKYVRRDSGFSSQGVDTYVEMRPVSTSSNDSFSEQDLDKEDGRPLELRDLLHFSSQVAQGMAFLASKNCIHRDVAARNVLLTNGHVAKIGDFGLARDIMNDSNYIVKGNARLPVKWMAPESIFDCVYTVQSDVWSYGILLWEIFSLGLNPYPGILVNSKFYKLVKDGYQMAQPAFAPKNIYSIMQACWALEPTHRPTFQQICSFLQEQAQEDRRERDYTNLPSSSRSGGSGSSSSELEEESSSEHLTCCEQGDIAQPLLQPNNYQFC
Protocol: as §1

FYN = FYN (Homo sapiens, UniProt P06241); test: radiometric kinase assay, other kinases: FYN; assay type: biochemical; conditions: duplicate
Protocol: as §1

IGF-1R = biological target: T3, IGF-1R (Homo sapiens, UniProt P08069); test: radiometric kinase assay, other kinases: IGF-1R; assay type: biochemical; conditions: duplicate
T3 construct: other kinases of recombinant human cytoplasmic domain
T3 sequence (P08069 960-1367 limits assumed): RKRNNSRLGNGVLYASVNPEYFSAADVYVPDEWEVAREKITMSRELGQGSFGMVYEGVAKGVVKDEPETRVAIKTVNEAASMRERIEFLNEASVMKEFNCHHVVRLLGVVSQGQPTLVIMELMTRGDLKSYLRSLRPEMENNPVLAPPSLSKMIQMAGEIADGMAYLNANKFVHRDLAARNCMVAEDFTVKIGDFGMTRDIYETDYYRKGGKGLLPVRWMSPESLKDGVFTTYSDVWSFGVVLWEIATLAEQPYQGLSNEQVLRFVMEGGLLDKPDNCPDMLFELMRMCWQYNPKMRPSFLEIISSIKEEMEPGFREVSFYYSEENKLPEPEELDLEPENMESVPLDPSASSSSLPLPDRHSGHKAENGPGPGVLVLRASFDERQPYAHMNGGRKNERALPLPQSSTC
Protocol: as §1

P38a/MAPK14 = P38a/MAPK14 (Homo sapiens, UniProt Q16539); test: radiometric kinase assay, other kinases: P38a/MAPK14; assay type: biochemical; conditions: duplicate
P38a/MAPK14, sequence (Q16539 whole entry): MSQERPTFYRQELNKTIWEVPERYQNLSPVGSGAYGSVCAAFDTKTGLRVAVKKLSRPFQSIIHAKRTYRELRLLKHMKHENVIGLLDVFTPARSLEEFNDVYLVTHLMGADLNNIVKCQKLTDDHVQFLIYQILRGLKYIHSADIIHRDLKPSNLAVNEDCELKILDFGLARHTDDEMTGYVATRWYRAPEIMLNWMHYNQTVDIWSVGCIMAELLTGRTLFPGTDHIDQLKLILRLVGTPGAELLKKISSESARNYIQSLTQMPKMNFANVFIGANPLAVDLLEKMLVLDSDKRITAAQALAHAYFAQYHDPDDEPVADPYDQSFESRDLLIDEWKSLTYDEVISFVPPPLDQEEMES
Protocol: as §1

PDGFRa = biological target: T4, PDGFRa (Homo sapiens, UniProt P16234); test: radiometric kinase assay, other kinases: PDGFRa; assay type: biochemical; conditions: duplicate
T4 construct: other kinases of recombinant human cytoplasmic domain
Protocol: as §1

PDGFRb = biological target: T5, PDGFRb (Homo sapiens, UniProt P09619); test: radiometric kinase assay, other kinases: PDGFRb; assay type: biochemical; conditions: duplicate
T5 construct: other kinases of recombinant human cytoplasmic domain
Protocol: as §1

PKCbetaII = PKCbetaII (Homo sapiens, UniProt P05771); test: radiometric kinase assay, other kinases: PKCbetaII; assay type: biochemical; conditions: duplicate
Protocol: as §1

PKCeta = PKCeta (Homo sapiens, UniProt P24723); test: radiometric kinase assay, other kinases: PKCeta; assay type: biochemical; conditions: duplicate
PKCeta, sequence (P24723 whole entry): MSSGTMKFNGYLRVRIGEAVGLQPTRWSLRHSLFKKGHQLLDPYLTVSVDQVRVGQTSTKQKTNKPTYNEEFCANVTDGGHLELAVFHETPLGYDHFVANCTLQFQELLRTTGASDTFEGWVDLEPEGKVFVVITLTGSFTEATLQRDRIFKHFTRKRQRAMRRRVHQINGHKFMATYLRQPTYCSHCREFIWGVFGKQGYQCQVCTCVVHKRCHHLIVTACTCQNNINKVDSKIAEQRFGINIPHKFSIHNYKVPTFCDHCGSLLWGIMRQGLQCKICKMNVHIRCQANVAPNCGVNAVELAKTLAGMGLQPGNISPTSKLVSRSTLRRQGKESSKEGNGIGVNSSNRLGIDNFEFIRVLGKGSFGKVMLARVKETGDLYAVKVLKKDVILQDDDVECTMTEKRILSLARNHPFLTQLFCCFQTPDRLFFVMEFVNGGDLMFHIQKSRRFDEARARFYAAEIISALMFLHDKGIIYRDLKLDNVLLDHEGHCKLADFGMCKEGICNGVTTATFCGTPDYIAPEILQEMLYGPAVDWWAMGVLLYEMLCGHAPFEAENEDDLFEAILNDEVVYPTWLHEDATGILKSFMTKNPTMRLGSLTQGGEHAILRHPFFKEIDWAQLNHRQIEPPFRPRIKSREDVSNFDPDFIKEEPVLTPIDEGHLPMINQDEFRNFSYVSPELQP
Protocol: as §1

PKCgamma = PKCgamma (Homo sapiens, UniProt P05129); test: radiometric kinase assay, other kinases: PKCgamma; assay type: biochemical; conditions: duplicate
Protocol: as §1

PKG1a = PKG1a (Homo sapiens, UniProt Q13976); test: radiometric kinase assay, other kinases: PKG1a; assay type: biochemical; conditions: duplicate
Protocol: as §1

RAF1 = RAF1 (Homo sapiens, UniProt P04049); test: radiometric kinase assay, other kinases: RAF1; assay type: biochemical; conditions: duplicate
RAF1, sequence (P04049 whole entry): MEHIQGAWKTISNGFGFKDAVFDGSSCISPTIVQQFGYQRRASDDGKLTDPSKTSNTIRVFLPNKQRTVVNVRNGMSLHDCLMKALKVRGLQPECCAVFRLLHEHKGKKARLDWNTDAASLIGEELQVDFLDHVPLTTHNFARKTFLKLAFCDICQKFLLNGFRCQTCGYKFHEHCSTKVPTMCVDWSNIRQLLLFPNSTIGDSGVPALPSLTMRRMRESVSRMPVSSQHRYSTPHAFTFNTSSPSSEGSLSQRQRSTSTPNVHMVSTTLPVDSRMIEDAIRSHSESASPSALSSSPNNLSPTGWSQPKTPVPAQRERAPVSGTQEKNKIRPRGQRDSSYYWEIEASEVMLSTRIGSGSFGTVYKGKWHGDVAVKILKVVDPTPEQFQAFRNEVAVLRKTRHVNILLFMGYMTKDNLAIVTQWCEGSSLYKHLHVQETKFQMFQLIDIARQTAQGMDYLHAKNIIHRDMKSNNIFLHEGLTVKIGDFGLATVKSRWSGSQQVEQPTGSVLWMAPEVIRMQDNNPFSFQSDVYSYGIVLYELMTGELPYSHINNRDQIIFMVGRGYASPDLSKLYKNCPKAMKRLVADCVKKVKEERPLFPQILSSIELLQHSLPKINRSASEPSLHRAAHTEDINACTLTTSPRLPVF
Protocol: as §1

RET = biological target: T6, RET (Homo sapiens, UniProt P07949); test: radiometric kinase assay, other kinases: RET; assay type: biochemical; conditions: duplicate
T6 construct: other kinases of recombinant human cytoplasmic domain
Protocol: as §1

TGFbR2 = biological target: T7, TGFbR2 (Homo sapiens, UniProt P37173); test: radiometric kinase assay, other kinases: TGFbR2; assay type: biochemical; conditions: duplicate
T7 construct: other kinases of recombinant human cytoplasmic domain
T7 sequence (P37173 188-567 limits assumed): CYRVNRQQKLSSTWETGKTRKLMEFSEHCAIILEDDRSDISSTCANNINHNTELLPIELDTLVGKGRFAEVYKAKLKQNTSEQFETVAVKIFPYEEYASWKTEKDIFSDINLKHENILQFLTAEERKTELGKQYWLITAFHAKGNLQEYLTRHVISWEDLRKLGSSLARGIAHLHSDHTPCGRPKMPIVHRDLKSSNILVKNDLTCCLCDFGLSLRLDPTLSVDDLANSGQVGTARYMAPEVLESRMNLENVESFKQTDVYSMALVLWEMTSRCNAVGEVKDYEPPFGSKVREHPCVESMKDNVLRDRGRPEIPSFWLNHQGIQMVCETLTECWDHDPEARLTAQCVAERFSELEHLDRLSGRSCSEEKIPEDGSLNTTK
Protocol: as §1

VEGFR3/FLT4 = biological target: T8, VEGFR3/FLT4 (Homo sapiens, UniProt P35916); test: radiometric kinase assay, other kinases: VEGFR3/FLT4; assay type: biochemical; conditions: duplicate
T8 construct: other kinases of recombinant human cytoplasmic domain
T8 sequence (P35916 797-1363 limits assumed): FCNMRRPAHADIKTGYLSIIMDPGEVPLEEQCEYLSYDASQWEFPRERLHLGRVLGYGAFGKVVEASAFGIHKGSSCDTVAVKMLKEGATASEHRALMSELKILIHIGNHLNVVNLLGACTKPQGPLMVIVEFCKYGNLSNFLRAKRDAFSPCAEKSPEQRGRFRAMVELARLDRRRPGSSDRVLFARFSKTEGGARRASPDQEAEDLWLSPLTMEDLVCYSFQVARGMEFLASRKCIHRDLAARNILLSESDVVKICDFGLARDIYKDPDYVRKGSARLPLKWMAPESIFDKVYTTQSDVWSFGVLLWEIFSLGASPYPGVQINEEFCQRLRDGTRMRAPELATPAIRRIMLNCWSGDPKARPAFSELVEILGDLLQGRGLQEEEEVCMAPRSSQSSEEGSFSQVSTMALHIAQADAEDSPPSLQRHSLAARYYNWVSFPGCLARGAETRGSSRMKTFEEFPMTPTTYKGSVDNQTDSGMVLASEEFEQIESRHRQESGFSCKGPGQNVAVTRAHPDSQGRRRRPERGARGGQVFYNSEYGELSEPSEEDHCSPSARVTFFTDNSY
Protocol: as §1

[1] = tested on: AsPC-1 human pancreatic cancer cells; test: Cell Viability and Proliferation Assay, AsPC-1; assay type: cell-based; conditions: ASPC1, after 24 incubation
Protocol: (§2) Cell Viability and Proliferation Assays. To assess the chemosensitivity of tumor cells, cell viability is measured by CellTiter-Glo® Luminescent Cell Viability Assay (Promega; Wis., USA) per the manufacturer's instruction. Briefly, 5×10^3 to 7×10^5 cells/ml are cultured in sterile 96-well plates in the presence of increasing concentrations of the drugs (test article, 0 to 100 μM), or vehicle in RPMI medium. The plates are then incubated for 24 to 96 h, and then 100 μl of CellTiter-Glo reagent is added to lyse the cells. After a 10-min incubation at room temperature, the luminescence is recorded in a luminometer with an integration time of 1 s per well. The luminescence signals for the drug-treated cells are normalized by the luminescence signal obtained from vehicle-treated cells. As an alternative method to quantitate cell viability, the trypan blue exclusion dye method was used. Vehicle- or drug-treated cells were assayed by adding trypan blue solution (0.4% in phosphate-buffered saline [PBS]) to the culture medium. After 3 min, the number of dead cells that retained the dye is compared to the total number of cells to calculate cell viability. GraphPad Prism 5 software is used to calculate IC50 and plot effect-dose curve of drugs. Multiplate reader: EnVision 2104 (PerkinElmer). % of control variability=100*[(X(drug_treated)−L(baseline))/(H(vehicle_control)−L(baseline))]. […]

[2] = tested on: BxPC-3 human pancreatic cancer cells; test: Cell Viability and Proliferation Assay, BxPC-3; assay type: cell-based; conditions: after 24 incubation
Protocol: as §2

[3] = tested on: Panc-1 human pancreatic cancer cells; test: Cell Viability and Proliferation Assay, Panc-1; assay type: cell-based; conditions: after 24 incubation
Protocol: as §2

TrkB = TrkB (Homo sapiens, UniProt Q16620); test: radiometric kinase assay, other kinases: TrkB; assay type: biochemical; design: other kinases of recombinant human cytoplasmic domain; conditions: duplicate
TrkB, sequence (Q16620 455-822 limits assumed): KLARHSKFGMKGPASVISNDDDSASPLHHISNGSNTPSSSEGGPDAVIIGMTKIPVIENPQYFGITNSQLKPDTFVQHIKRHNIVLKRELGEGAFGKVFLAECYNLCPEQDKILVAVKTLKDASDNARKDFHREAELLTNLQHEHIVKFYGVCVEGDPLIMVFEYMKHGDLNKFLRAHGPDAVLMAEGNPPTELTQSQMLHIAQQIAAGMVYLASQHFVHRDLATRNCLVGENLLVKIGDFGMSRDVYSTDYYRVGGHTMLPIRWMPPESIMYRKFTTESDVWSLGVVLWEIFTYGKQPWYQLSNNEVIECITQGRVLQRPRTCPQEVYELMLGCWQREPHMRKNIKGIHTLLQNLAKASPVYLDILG
Protocol: as §1

TrkC = TrkC (Homo sapiens, UniProt Q16288); test: radiometric kinase assay, other kinases: TrkC; assay type: biochemical; design: other kinases of recombinant human cytoplasmic domain; conditions: duplicate
Protocol: as §1

[4] = tested on: PANC-1 subcutaneous human pancreatic cancer xenografts; test: PANC-1 Subcutaneous Human Pancreatic Cancer Xenograft Mouse Model
Protocol: Temperature: 22±3° C. Humidity: 50±20%. Light cycle: 12 hours light and 12 hours dark. Cages: Polycarbonate cages of 300 mm×180 mm×150 mm embedded with the soft wood material were used. The bedding was changed twice a week. Diet: Animals had free access to a certified commercial laboratory diet. Concentrations of contaminants in the diet are routinely analyzed by the manufacturers to ensure the contaminants are below their allowable maximum and thus would not affect the tumor growth.
Water: Animals had free access to sterile drinking water. Cage identification: The identification labels for each cage contained the following information: number of animals, sex, strain, date received, treatment, group number and the starting date of the treatment. Briefly, PANC-1 cell line was originally purchased from the ATCC (CRL-1469) and the PANC-1 primary cell line was derived from the PANC-1 subcutaneously xenograft tumors. The PANC-1 primary cells were maintained in vitro as monolayer culture in DMEM medium supplemented with 10% heat inactivated fetal bovine serum, 100 U/ml penicillin and 100 μg/ml streptomycin and L-glutamine (2 mM) at 37° C. in an atmosphere of 5% CO2 air. The cells growing in exponential phase were harvested and counted for tumor inoculation.
Tumor Cell Inoculation and Randomization. Each animal was inoculated subcutaneously on the right flank with the PANC-1 primary tumor cells (5×10^6/animal) in 0.1 mL of PBS. Tumor development was allowed undisrupted until mean tumor volume reached approximately 85 mm^3. Animals were then randomized into 6 groups, with each group consisting of 8 animals. The test articles were administered to the tumor-bearing animals according to predetermined regimens. […] At the time of routine monitoring, the animals were checked for any effects of tumor growth on normal behavior such as mobility, food and water consumption (by looking only), body weight (BW) gain/loss (BW was measured twice weekly), eye/hair matting and any other abnormal effect. Death and observed clinical signs were recorded on the basis of the numbers of animals within each subset.
Tumor Measurement and the Endpoints: The major endpoint was to evaluate if the tumor growth could be inhibited. Tumor measurement was conducted twice weekly with a caliper and the tumor volume (mm3) is estimated using the formula: TV=a×b^2/2, where a and b are long and short diameters of a tumor, respectively. The tumor sizes were then used for T/C value and TGI (tumor growth inhibition), which are indicators of anti-tumor effectiveness. The T/C value (in percent) is an indication of antitumor effect. T and C are the mean volumes of the treated and control groups, respectively, on a given day. BW change, expressed as %, is calculated using the following formula: BW change (%)=(BW_DayX/BW_Day0)×100, where BW_DayX is BW on a given day, and BW_Day0 was BW on Day 0 (tumor inoculation).
Tumor Sample Collection: Two tumor samples from Group 1, 2 and 3, respectively; six tumor samples from Group 4; five tumor samples from Group 5 and 6, respectively, were snap frozen in liquid nitrogen and kept at −80° C. Total 22 tumor samples were collected.
Statistical Analyses: A one-way ANOVA was performed to compare tumor volumes among groups. All data were analyzed using the SPSS 17.0 software; p<0.05 was considered statistically significant.

- IC50 (AKT1): > 10 µM
- IC50 (AXL): > 10 µM
- IC50 (BTK): > 10 µM
- IC50 (FMS): > 10 µM
- IC50 (FYN): > 10 µM
- IC50 (IGF-1R): > 10 µM
- IC50 (P38a/MAPK14): > 10 µM
- IC50 (PDGFRa): > 10 µM
- IC50 (PDGFRb): > 10 µM
- IC50 (PKCbetaII): > 10 µM
- IC50 (PKCeta): > 10 µM
- IC50 (PKCgamma): > 10 µM
- IC50 (PKG1a): > 10 µM
- IC50 (RAF1): > 10 µM
- IC50 (RET): > 10 µM
- IC50 (TGFbR2): > 10 µM
- IC50 (VEGFR3/FLT4): > 10 µM
- IC50 [1]: 2 to 5 µM
- IC50 [2]: 2 to 5 µM
- IC50 [3]: 2 to 5 µM
- IC50 (TrkB): > 10 µM
- IC50 (TrkC): > 10 µM
Structure (SMILES): Nc1c(N2CCN(C3CCCCC3)CC2)cc(Nc2ccc(C(=O)O)cc2)c2c1C(=O)c1ccccc1C2=O [Compound 12, 4-{[4-amino-3-(4-cyclohexylpiperazin-1-yl)-9,10-dioxo-9,10-dihydroanthracen-1-yl]amino}benzoic acid]
- TGI (%, D18) ([4]; D18, Compound-12 alone, dose not given): 34%
- Tumor volume (Mean ± SEM) ([4]; Day 7, Compound-12 alone, dose not given): 84 ± 4 mm^3
- Tumor volume (Mean ± SEM) ([4]; Day 11, Compound-12 alone, dose not given): 111 ± 5 mm^3
- Tumor volume (Mean ± SEM) ([4]; Day 14, Compound-12 alone, dose not given): 157 ± 15 mm^3
- Tumor volume (Mean ± SEM) ([4]; Day 18, Compound-12 alone, dose not given): 234 ± 8 mm^3
- Tumor volume (Mean ± SEM) ([4]; Day 19, Compound-12 alone, dose not given): 276 ± 27 mm^3
- anti-tumor efficacy in words ([4]; alone or in combination with gemcitabine): efficacious in reducing tumor growth
